Test results reported in US8053467B2, “Flavor improving agent, and food and drink containing the same” (Takasago International Corporation, priority 2006, dated 2011).

Columns and labels:
[1] = Bitterness threshold by sensory evaluation test (panel of 9 experts); type: in vivo; conditions: for bitterness at the maximum concentration: at 0.1% by weight, the maximum concentration (1000 times the acetal threshold)
Method: 100 mg of 5-hydroxymethyl-2-furaldehyde bis(5-formylfurfuryl)acetal obtained in Example 1 was dissolved in 1 mL of ethanol, and 100 mL of water was added to produce 0.1% by weight of a 1 wt. % ethanol solution. This solution was diluted 10-fold with water repeatedly to prepare samples for evaluation. In consideration of the taste of ethanol itself, a 1 wt. % ethanol solution was prepared and diluted 10-fold with water repeatedly to prepare blanks respectively corresponding to the samples for evaluation. The evaluation was performed by a panel of 9 experts. The sensory evaluation test was performed from a sample/blank having a lower concentration. In the order of blanks to samples, the experts held 200 mg of each sample/blank in the mouth and evaluated the difference in taste.

[2] = Sensory evaluation of the flavor improving agents for the sugar-free sweetener; type: in vivo
Method: A sugar-free sweetener having the formulation shown in Table 2 was obtained, and 12 g of the sugar-free sweetener was dissolved in 1 kg of ion exchanged water to obtain a 1.2 wt. % aqueous solution. 60 mg of the flavor improving agent in Example 2 was added to 300 g of the aqueous solution to obtain a sugar-free sweetener solution sample containing 0.02% by weight of the flavor improving agent. The content of 5-hydroxymethyl-2-furaldehyde bis(5-formylfurfuryl)acetal in the sugar-free sweetener was 0.00014% by weight.
This sample was evaluated with regard to the items shown in Table 3 by a sensory evaluation method of comparing a sample with a control product. The evaluation was performed by a panel of 5 trained experts. The sample was evaluated with the points in the range of −3 to +3, with setting the control product at 0 point. The control product was not provided with a flavor improving agent (provided with ethanol).
The numerals in the table are the averages of the 5 experts.

[3] = literature report; cited from earlier work
[4] = Sensory evaluation of the flavor improving agents for the coffee drink; type: in vivo; conditions: summary of Table 10
Method: 60 mg of the flavor improving agent in Example 2 was added to 300 g of commercially available canned coffee to obtain a coffee drink containing 0.02% by weight of the flavor improving agent. The content of 5-hydroxymethyl-2-furaldehyde bis(5-formylfurfuryl)acetal in this coffee drink was 0.00014% by weight.
This coffee drink was evaluated with regard to the items shown in Table 10 by a sensory evaluation method of comparing a sample with a control product. The evaluation was performed by a panel of 5 trained experts. Sensory evaluation of the coffee drink was carried out with the points in the range of −3 to +3, with setting the control product at 0 point, in the same manner as in Example 9. The control product was not provided with a flavor improving agent (provided with ethanol).

[5] = same type of test as Example 9, agents prepared as in Example 2 with formulas (2) and (3), also with 100 times the amount
[6] = sugar-free sweetener solution, summary of Table 3

O=Cc1ccc(COC(OCc2ccc(C=O)o2)c2ccc(CO)o2)o1 [acetal compound of the present invention, 5-hydroxymethyl-2-furaldehyde bis(5-formylfurfuryl)acetal]
bitterness threshold ([1]; 1 ppm expressed in %): 0.0001%
bitterness threshold ([1]; 1 ppm expressed in % by weight): 0.0001 % by weight
bitterness threshold ([1]; 10-fold dilutions in water vs ethanol blanks, panel of 9 experts): 1 ppm
bitterness threshold converted to the molar concentration ([1]; converted from 1 ppm): about 10^−3 mM

O=Cc1ccc(CO)o1 [formula (2), 5-hydroxymethyl-2-furaldehyde]
flavor improving effect in words [2, 5]: None of the agents exhibited any flavor improving effect and provided various unpleasant tastes including astringency
reported taste [3]: unpleasant taste
bitterness at the maximum concentration [1]: did not provide bitterness

O=Cc1ccc(COCc2ccc(C=O)o2)o1 [formula (3)]
flavor improving effect in words [2, 5]: None of the agents exhibited any flavor improving effect and provided various unpleasant tastes including astringency
reported taste [3]: unpleasant taste
bitterness at the maximum concentration [1]: did not provide bitterness

C[C@@H]1O[C@@H](O[C@H]2[C@H](Oc3cc(O)c4c(c3)O[C@H](c3ccc(O)cc3)CC4=O)O[C@H](CO)[C@@H](O)[C@@H]2O)[C@H](O)[C@H](O)[C@H]1O [naringin]
flavor effect in words [4]: medicine-like unnatural bitterness and are poor in attractiveness

O.O.O.O.O.O.O.O.O.O.O.O.O=S(=O)([O-])[O-].O=S(=O)([O-])[O-].[Al+3].[K+] [potassium alum]
flavor improving effect in words [2, 6]: poor effect of reducing astringency or improving the sense of volume

diheterolevulosan II
flavor effect in words [4]: medicine-like unnatural bitterness and are poor in attractiveness

αG hesperidin
flavor improving effect in words [2, 6]: poor effect of reducing astringency or improving the sense of volume
